{"source": "patent US20120237535A1", "about": "“Therapeutic Compositions For The Treatment of HPV-Induced Diseases” (priority 2009, published 2012)", "key": {"[1]": {"system": "bone marrow-derived dendritic cells", "experiment": "IL-12 production by bone marrow-derived dendritic cells (ELISA)", "type": "cell-based, mouse", "details": "500 nM; ELISA of culture supernatant", "description": "(§1) FIG. 3: EDA-HPV-E7 fusion protein induces the production of IL-12 by bone marrow-derived dendritic cells or the production of TNF-α by the human monocyte cell line THP-1. (A) Bone marrow-derived dendritic cells were incubated for […] with EDA-HPVE7 (500 nM), with peptide E7(49-57) (500 nM), with LPS (1 μg/ml) (positive control) or with culture medium (negative control). 24 hours later, the culture supernatant was harvested and the IL-12 released to the supernatant was measured by ELISA. (B) THP-1 cells were incubated for 15 hours with EDA-HPVE7 (500 nM), with peptide E7(49-57) (500 nM), with LPS (1 μg/ml) or with culture medium (negative control). After culture, the supernatants were harvested and the released TNF-α was measured by ELISA.\n(§2) Bone marrow (BM)-derived dendritic cells were generated from mouse femur marrow cell cultures. […] After 24 h of culture, supernatants were harvested and IL-12 (p70) and TNF-α were measured by ELISA (BD-Pharmingen), according to manufacturer's instructions. Expression of DC maturation markers was measured by flow cytometry. […] After this initial incubation, cells were stained with the primary antibodies at 4° C. for 15 min, washed and acquired on FACSscan cytometer (BD Biosciences, San Diego, Calif.) and analyzed using Cell Quest software (BD Biosciences). […]"}, "[2]": {"system": "TC-1 tumor cells expressing HPV16-E6 and HPV16-E7", "experiment": "Therapeutic efficacy against established TC-1 tumors (approximately 8 mm, treated day 25)", "type": "in vivo, C57BL/6 mice", "details": "TC-1 s.c., treated i.v. day 25, tumors about 8 mm; for tumor growth: mean of two perpendicular diameters", "description": "FIG. 6: Therapeutic efficacy of the EDA-HPVE7 fusion protein combined with poly I:C (pI:C). Mice were injected with 5×10^5 TC-1 cells and 25 days later, when tumor mean diameters were approximately 8 mm, they were treated intravenously with different vaccine combinations based on EDA (A). Tumor size, presented as the average of two perpendicular diameters (millimeters), was measured at regular intervals. The number of tumor-free mice on day 100 relative to the total number of animals included and the percent surviving on day 100 are indicated for each set of experiments. The p-value (*p<0.05) determined by the likelihood ratio test comparing tumor growth in the EDA-E7/pI:C treated group with tumor growth in the p:IC-treated group is indicated. The mice were sacrificed when the tumor diameters reached 20 mm or when necessary due to the sanitary status of the animals. (B) Survival curves from the immunized mice with the indicated immunogens are indicated (p values are indicated ((*p<0.05)). Pooled data of two independent experiments are shown.\nTHP1 cells (American Type Culture Collection ATCC, Manassas, Va.) were used for in vitro assays of monocyte activation by EDA derived fusion proteins. TC-1, tumor cells expressing HPV16-E6 and HPV16-E7 proteins derived from primary mouse lung epithelial cells, were obtained from the American Type Culture Collection (LGC Promochem, Molsheim, France). Cells were maintained in RPMI 1640 with GlutaMAX supplemented with 10% heat-inactivated fetal calf serum, 100 units/ml penicillin, 100 μg/ml streptomycin, 0.4 mg/ml geneticin and 5×10-5 mol/l 2-mercaptoethanol (Life Technologies, Cergy-Pontoise, France). 5×10^5 TC-1 cells were injected into the shaved back (left side) of C57BL/6 mice in 200 μL PBS. Tumor size, presented as the average of two perpendicular diameters (millimeters), was measured at regular intervals.\nMonolix software (http://www.monolix.org/) was used for analysis of tumor growth data with non-linear mixed effect models. Mean diameters of tumors over time were fitted using the model described in equation 1.1 and treatments were compared using the likelihood ratio test.\nKaplan-Meier plots were used to analyze survival. Prism software (GraphPad Software, Inc. San Diego, USA) was used to determine the significance of differences in survival curves with a log rank test. The results of the in vivo killing analysis were analyzed by ANOVA followed by Dunnett's Multiple Comparison test. p values less than 0.05 were considered to be statistically significant.\nTo better evaluate the potency of EDA-HPVE7 as an antigen delivery system and as a vaccine, the therapeutic efficacy of this fusion protein was compared with that of the E7(49-57) peptide, both supplemented with TLR ligand pI:C. […]"}, "[3]": {"system": "human monocyte cell line THP-1", "experiment": "In vitro monocyte activation, TNF-α released by THP-1 (ELISA)", "type": "cell-based", "details": "500 nM, 15 hours", "description": "as §1\nTHP-1 cells were plated at 1×10^6 cells/well and cultured overnight at 37° C. and 5% CO2 in complete medium for stabilization of the culture. Different concentrations of the indicated antigens were added to the cultures and after 15 hour of incubation, culture supernatants were harvested. The concentration of human TNF-α released to the medium by the THP-1 cell line was quantified using a commercial ELISA assay (BD Pharmingen), according to manufacturer's instructions.\nTherefore, it was assayed if the recombinant protein EDA-HPV-E7 was also able to induce maturation of BMDC in vitro."}, "[4]": {"system": "EL4 cells pulsed with DTc peptide", "experiment": "In vivo induction of CTL by immunization, chromium release assay", "design": "species or system C57BL/6 mice", "details": "2 nmol i.v. in PBS, no adjuvant; spleen cells day 7, cultured 5 days; compared with peptide DTc/E7(49-57)", "description": "FIG. 4: In vivo induction of CTL by immunization with EDA-HPV-E7 protein or with the DTc/E7(49-57) peptide in PBS. (A) Mice were immunized i.v with 2 nmol EDA-HPV-E7 or with the DTc/E7(49-57) peptide. Seven days alter immunization, the mice were sacrificed and spleen cells were cultured in the presence or absence of DTc peptide for 5 days. CTL activity was measured using a conventional chromium release assay using EL4 cells radio labeled and pulsed with DTc peptide as target cells in the splenocytes cultures obtained from the mice immunized with the protein EDA-HPV-E7 (closed circles) ◯ with the peptide DTc/E7 (49-57) (open circles) (On the graphic, the absolute values are shown, said values are calculated by subtracting the value of lysis obtained without peptide from the value obtained in the presence of peptide). […]\nIt was assayed if mice immunized with the EDA-HPVE7 fusion protein developed HPVE7-specific T cell responses. […] CTL activity was measured using a conventional chromium release assay using radio labeled EL4 cells pulsed with DTc peptide or without peptide as target cells. (FIG. 4A) (On the graphic, the absolute values are shown, said values are calculated subtracting the value of lysis obtained without peptide from the value obtained in the presence of peptide). […]"}, "[5]": {"system": "HPVE7-specific T cell responses", "experiment": "IFN-γ producing cells by ELISPOT in splenocytes of immunized mice", "type": "in vivo, C57BL/6 mice", "details": "2 nmol i.v. in PBS, compared with E7(49-57) peptide"}, "[6]": {"system": "bone marrow-derived dendritic cells", "experiment": "Maturation of bone marrow-derived dendritic cells, maturation markers by flow cytometry", "type": "cell-based, mouse", "details": "BMDC incubated with 500 nM", "description": "FIG. 2: Activation of bone marrow-derived dendritic cell maturation by the EDAHPV-E7 fusion protein. Bone marrow-derived dendritic cells were incubated for 48 hours with EDA-HPVE7 (500 nM), with peptide E7(49-57) (500 nM), with LPS (1 μg/ml) (positive control) or with culture medium (Control Neg). Cells were then harvested and analyzed by flow cytometry for the expression of the H-2b molecule or the maturation markers CD54 and CD86 (RFU: Relative fluorescence units).\nas §2, with “cultures. After lysing erythrocytes with ACK lysing buffer, bone marrow cell were washed and subsequently depleted of lymphocytes and granulocytes by incubation with a mixture of antibodies against CD4 (GK1; ATCC, Manassas, Va.), CD8 (53.6.72; ATCC), Ly-6G/Gr1 (BD-Pharmingen; San Diego, Calif.) and CD45R/B220 (BD-Pharmingen) followed by rabbit complement.” for “cultures.”"}}, "data": [{"substance": "EDA-HPVE7: recombinant fusion protein: amino acids 1-29 of HPV-E7 at N-terminus of fibronectin EDA, amino acids 43-98 at C-terminus, six histidine residues", "values": [{"measurement": "production of IL-12 cytokine by BMDC", "setting": "[1]", "value": "able to strongly stimulate the production"}, {"measurement": "tumor eradication (in words)", "setting": "[2]", "value": "unable to eradicate the tumors"}, {"measurement": "tumor growth", "setting": "[2]", "value": "a delay in tumor growth was observed"}, {"measurement": "production of TNF-α cytokine by THP-1", "setting": "[3]", "value": "able to induce the production"}, {"measurement": "CTL activity against target cells pulsed with the cytotoxic T cell epitope E7", "setting": "[4]", "value": "higher levels of CTL activity"}, {"measurement": "number of IFN-γ producing spots specific for E7(49-57)", "setting": "[5]", "value": "higher number of IFN-γ producing spots"}, {"measurement": "number of IFN-γ producing spots specific for TC1 cells", "setting": "[5]; irradiated TC1 cells", "value": "higher number of IFN-γ producing spots"}, {"measurement": "expression of the maturation marker CD54", "setting": "[6]", "value": "able to upregulate expression"}, {"measurement": "expression of the maturation marker IAb", "setting": "[6]", "value": "able to upregulate expression"}]}, {"substance": "Polyinosinic-polycytidylic acid [pI:C, reference compound]", "values": [{"measurement": "survival", "setting": "[2]; Kaplan-Meier, log rank test", "value": "slight, statistically non-significant prolongation of survival"}, {"measurement": "tumor growth", "setting": "[2]", "value": "followed the same tumor growth kinetics"}]}]}
